For 29 compounds, IC50 results are on record in US9073895B2 (Boehringer Ingelheim International GmbH, priority 2010, dated 2015).

Molecules are shown by their SMILES. A value given as a limit tells only on which side of the number the result lay.

Usually IC50 stands for the concentration that gives 50% inhibition.

For test [1], the target named is T1, recombinant human FLAP protein (Homo sapiens, UniProt P20292).
T1 construct: made in house; host or cells: Sf9 insect cells (membrane fraction, 100,000 x g pellet)
T1 sequence (P20292 1-161): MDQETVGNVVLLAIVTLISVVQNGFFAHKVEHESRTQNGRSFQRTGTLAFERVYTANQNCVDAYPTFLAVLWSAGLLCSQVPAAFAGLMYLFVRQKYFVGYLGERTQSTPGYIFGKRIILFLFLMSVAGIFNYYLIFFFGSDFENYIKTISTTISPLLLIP
As to the kind of experiment: FLAP binding assay (SPA, displacement of [125I]L-691,831). The following applies: membranes of sf9 cells expressing human FLAP, [125I]L-691,831 probe; read-out: hFLAP binding IC50. The gist of the method: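 Membranes from sf9 cells expressing human FLAP (5 μg/well) were bound to WGA SPA beads (200 μg/well). Nonspecific binding was defined with 10 μM unlabelled L-691,831.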

The test system of test [2] is synthesis of LTB4 in human whole blood. Description: Human whole blood LTB4 production inhibition assay. Format: cell-based. The following applies: heparinized human whole blood, calcimycin 20 μM, plasma LTB4; read-out: HuWB IC50. Here is the method:
Compounds are additionally tested in a human whole blood assay to determine their ability to inhibit the synthesis of LTB4 in a cellular system. Compounds are combined with heparinized human whole blood and incubated for 15 minutes at 37° C. Calcimycin (20 μM final, prepared in phosphate-buffered saline, pH 7.4) is then added and the mixture is incubated for another 30 minutes at 37° C. The samples are centrifuged for 5 min at low speed (1500×g) and the plasma layer is removed. Plasma LTB4 concentrations are then measured using an antibody-based homogenous time-resolved fluorescence method (CisBio, Bedford, Mass.).

Take `CC(C)C(C)(C(=O)Nc1ccccn1)c1ccc(-c2cnc(N)nc2)cc1` (stereo not shown) [Example 127, 2-[4-(2-aminopyrimidin-5-yl)phenyl]-2,3-dimethyl-N-(pyridin-2-yl)butanamide]: the results for the IC50 in test [1] and in test [2] were 0.009 µM and 3.22 µM, respectively.
For `Nc1ncc(-c2ccc(C3(C(=O)Nc4cccc(-c5cnco5)c4)CCOCC3)cc2)cn1` [Example 26, 4-[4-(2-aminopyrimidin-5-yl)phenyl]-N-[3-(1,3-oxazol-5-yl)phenyl]tetrahydro-2H-pyran-4-carboxamide] the same measures were 0.026 µM and over 3 µM.
Consider `NC(=O)c1ccc(NC(=O)C2(c3ccc(-c4cnc(N)nc4)cc3)CCC2)nc1` [Example 93, 6-[({1-[4-(2-aminopyrimidin-5-yl)phenyl]cyclobutyl}carbonyl)amino]pyridine-3-carboxamide], for which the figures for the IC50 in test [1] and in test [2] were 0.00205 µM and 0.312 µM, respectively.
For `Nc1ncc(-c2ccc(C3(C(=O)Nc4ccc(-c5ccccc5)cc4)CCOCC3)cc2)cn1` [Example 16, 4-[4-(2-aminopyrimidin-5-yl)phenyl]-N-(biphenyl-4-yl)tetrahydro-2H-pyran-4-carboxamide] the same measures were 0.0107 µM and 0.636 µM.
For `Nc1ncc(-c2ccc(C3(C(=O)Nc4cccc(-c5ccccc5)c4)CCOCC3)cc2)cn1` [Example 24, 4-[4-(2-aminopyrimidin-5-yl)phenyl]-N-(biphenyl-3-yl)tetrahydro-2H-pyran-4-carboxamide], the IC50 is 0.095 µM in test [1] and over 3 µM in test [2].
The matching figures for `N#Cc1ccc(NC(=O)C2(c3ccc(-c4cnc(N)nc4)cc3)CCOCC2)cc1Cl` [Example 3, 4-[4-(2-aminopyrimidin-5-yl)phenyl]-N-(3-chloro-4-cyanophenyl)tetrahydro-2H-pyran-4-carboxamide]: 0.0112 µM and 0.328 µM.
For `COc1cc(NC(=O)C2(c3ccc(-c4cnc(N)nc4)cc3)CCC2)ccn1` [Example 187, 1-[4-(2-aminopyrimidin-5-yl)phenyl]-N-(2-methoxypyridin-4-yl)cyclobutanecarboxamide] the same measures were 0.0051 µM and 0.517 µM.
For `COc1cc(NC(=O)C2(c3ccc(-c4cnc(N)nc4)cc3)CCC2)ncn1` [Example 199, 1-[4-(2-aminopyrimidin-5-yl)phenyl]-N-(6-methoxypyrimidin-4-yl)cyclobutanecarboxamide] the same measures were 0.0057 µM and 1.38 µM.
For `CN(C)S(=O)(=O)c1ccc(NC(=O)C2(c3ccc(-c4cnc(N)nc4)cc3)CCC2)cc1` [Example 87, 1-[4-(2-aminopyrimidin-5-yl)phenyl]-N-[4-(dimethylsulfamoyl)phenyl] cyclobutanecarboxamide], the IC50 in test [1] worked out at 0.004 µM; in test [2] it was 0.192 µM.
For `Cn1ccc(NC(=O)C2(c3ccc(-c4cnc(N)nc4)cc3)CCC2)cc1=O` [Example 216, 1-[4-(2-aminopyrimidin-5-yl)phenyl]-N-(1-methyl-2-oxo-1,2-dihydropyridin-4-yl)cyclobutanecarboxamide] the same measures were 0.0915 µM and 3.04 µM.
For `CC(C)C(C)(C(=O)Nc1cccnc1)c1ccc(-c2cnc3[nH]ccc3c2)cc1` (stereo not shown) [Example 180, 2,3-dimethyl-N-(pyridin-3-yl)-2-[4-(1H-pyrrolo[2,3-b]pyridin-5-yl)phenyl]butanamide], the IC50 in test [1] was 0.0063 µM; in test [2] it was 0.402 µM.
With `Nc1ncc(-c2ccc(C3(C(=O)Nc4ccc(Oc5ccccc5)cn4)CCOCC3)cc2)cn1` [Example 173, 4-[4-(2-aminopyrimidin-5-yl)phenyl]-N-(5-phenoxypyridin-2-yl)tetrahydro-2H-pyran-4-carboxamide], the IC50 in test [1] is 0.018 µM; in test [2] it was 0.929 µM.
The matching figures for `Nc1ncc(-c2ccc(C3(C(=O)Nc4ccc5c(c4)OCCO5)CCOCC3)cc2)cn1` [Example 12, 4-[4-(2-aminopyrimidin-5-yl)phenyl]-N-(2,3-dihydro-1,4-benzodioxin-6-yl)tetrahydro-2H-pyran-4-carboxamide]: 0.068 µM and 2.23 µM.
The matching figures for `Cc1nc(-c2ccc(NC(=O)C3(c4ccc(-c5cnc6[nH]cnc6c5)cc4)CCOCC3)nc2)cs1` [Example 197, 4-[4-(3H-imidazo[4,5-b]pyridin-6-yl)phenyl]-N-[5-(2-methyl-1,3-thiazol-4-yl)pyridin-2-yl]tetrahydro-2H-pyran-4-carboxamide]: 0.027 µM and 2.44 µM.
For `Nc1ncc(-c2ccc(C3(C(=O)Nc4ccc(S(=O)(=O)N5CCOCC5)cc4)CCOCC3)cc2)cn1` [Example 64, 4-[4-(2-aminopyrimidin-5-yl)phenyl]-N-[4-(morpholin-4-ylsulfonyl)phenyl]tetrahydro-2H-pyran-4-carboxamide] the same measures were 0.048 µM and 0.85 µM.
Take `COc1ccc(NC(=O)C2(c3ccc(-c4cnc(N)nc4)cc3)CCC2)nc1` [Example 217, 1-[4-(2-aminopyrimidin-5-yl)phenyl]-N-(5-methoxypyridin-2-yl)cyclobutanecarboxamide]: the IC50 in test [1] worked out at 0.00825 µM; in test [2] it was 0.389 µM.
For `Cc1nc(-c2ccc(NC(=O)C(C)(c3ccc(-c4cnc(N)nc4)cc3)C(C)C)nc2)cs1` (stereo not shown) [Example 119, 2-[4-(2-aminopyrimidin-5-yl)phenyl]-2,3-dimethyl-N-[5-(2-methyl-1,3-thiazol-4-yl)pyridin-2-yl]butanamide] the same measures were 0.00395 µM and 0.986 µM.
The matching figures for `Nc1ncc(-c2ccc(C3(C(=O)Nc4ccc(N5CCCCC5)cc4)CCOCC3)cc2)cn1` [Example 149, 4-[4-(2-aminopyrimidin-5-yl)phenyl]-N-[4-(piperidin-1-yl)phenyl]tetrahydro-2H-pyran-4-carboxamide]: 0.26 µM and 1.46 µM.
For `Nc1ncc(-c2ccc(C3(C(=O)Nc4nc(-c5ccncc5)cs4)CCC3)cc2)cn1` [Example 254, 1-[4-(2-aminopyrimidin-5-yl)phenyl]-N-[4-(pyridin-4-yl)-1,3-thiazol-2-yl]cyclobutanecarboxamide] the same measures were 0.0016 µM and 0.111 µM.
For the compound `Nc1ncc(-c2ccc(C3(C(=O)Nc4cccnn4)CCC3)cc2)cn1` [Example 225, 1-[4-(2-aminopyrimidin-5-yl)phenyl]-N-(pyridazin-3-yl)cyclobutanecarboxamide], the IC50 in test [1] was 0.078 µM; in test [2], 1.37 µM.
The matching figures for `COc1cncc(-c2ccc(C(C)(C(=O)Nc3ccc(OCc4ccccn4)cc3)C(C)C)cc2)c1` (stereo not shown) [Example 111]: 0.18 µM and 2.38 µM.
For `Nc1ncc(-c2ccc(C3(C(=O)Nc4ccccn4)CCOCC3)cc2)cn1` [Example 138, 4-[4-(2-aminopyrimidin-5-yl)phenyl]-N-(pyridin-2-yl)tetrahydro-2H-pyran-4-carboxamide] the same measures were 0.3 µM and 11.8 µM.
For `COc1ccc(-c2ccc(NC(=O)C3(c4ccc(-c5cnc(N)nc5)cc4)CCC3)nc2)cn1` [Example 208, 1-[4-(2-aminopyrimidin-5-yl)phenyl]-N-(6'-methoxy-3,3'-bipyridin-6-yl)cyclobutanecarboxamide] the same measures were 0.00335 µM and 0.459 µM.
For the compound `Nc1ncc(-c2ccc(C3(C(=O)Nc4ccc(Cl)c(Cl)c4)CCOCC3)cc2)cn1` [Example 13, 4-[4-(2-aminopyrimidin-5-yl)phenyl]-N-(3,4-dichlorophenyl)tetrahydro-2H-pyran-4-carboxamide], the IC50 was 0.0167 µM in test [1] and at least 3 µM in test [2].
For `Nc1ncc(-c2ccc(C3(C(=O)Nc4ccc(-c5ccncc5)cc4)CCOCC3)cc2)cn1` [Example 34, 4-[4-(2-aminopyrimidin-5-yl)phenyl]-N-[4-(pyridin-4-yl)phenyl]tetrahydro-2H-pyran-4-carboxamide] the same measures were 0.0117 µM and 0.161 µM.
For `N#Cc1ccc(NC(=O)C2(c3ccc(-c4cnc(N)nc4)cc3)CCC2)cc1` [Example 250, 1-[4-(2-aminopyrimidin-5-yl)phenyl]-N-(4-cyanophenyl)cyclobutanecarboxamide] the same measures were 0.0032 µM and 0.0607 µM.
For `Nc1ncc(-c2ccc(C3(C(=O)Nc4ccccn4)CCC3)cc2)cn1` [Example 129, 1-[4-(2-aminopyrimidin-5-yl)phenyl]-N-(pyridin-2-yl)cyclobutanecarboxamide] the same measures were 0.0104 µM and 8.62 µM.
On to `COc1cncc(-c2ccc(NC(=O)C(C)(c3ccc(-c4cnc5c(c4)CCN5)cc3)C(C)C)nc2)c1` (stereo not shown) [Example 165, 2-[4-(2,3-dihydro-1H-pyrolo[2,3-b]pyridin-5-yl)phenyl]-N-(5'-methoxy-3,3'-bipyridin-6-yl)-2,3-dimethylbutanamide], for which the figures for the IC50 in test [1] and in test [2] were 0.0014 µM and 0.354 µM, respectively.
For `Cc1nc(-c2cccc(NC(=O)C3(c4ccc(-c5cnc(N)nc5)cc4)CCOCC3)c2)cs1` [Example 70, 4-[4-(2-aminopyrimidin-5-yl)phenyl]-N-[3-(2-methyl-1,3-thiazol-4-yl)phenyl]tetrahydro-2H-pyran-4-carboxamide] the same measures were 0.042 µM and over 3 µM.
